Assay results as given in ChEMBL document CHEMBL5154925, “Design and Optimization of Thienopyrimidine Derivatives as Potent and Selective PI3Kδ Inhibitors for the Treatment of B-Cell Malignancies” (J Med Chem, 2022).
Calls of active or inactive are those of the source. The rule behind the calls is not given here.

Key:
SU-DHL-6 [1] = experiment: Antiproliferative activity against human SU-DHL-6 cells assessed as cell growth inhibition incubated for 96 hrs by cell titer glo assay; type: functional, cell-based; conditions: SU-DHL-6, 96 h
[2] = target: T1, Phosphatidylinositol 4,5-bisphosphate 3-kinase catalytic subunit delta isoform (Homo sapiens, UniProt O00329); experiment: Inhibition of PI3Kdelta (unknown origin) using PIP2 as substrate measured after 1 hr in presence of ATP by ADP-glo luminescence assay
T1 sequence (O00329 whole entry): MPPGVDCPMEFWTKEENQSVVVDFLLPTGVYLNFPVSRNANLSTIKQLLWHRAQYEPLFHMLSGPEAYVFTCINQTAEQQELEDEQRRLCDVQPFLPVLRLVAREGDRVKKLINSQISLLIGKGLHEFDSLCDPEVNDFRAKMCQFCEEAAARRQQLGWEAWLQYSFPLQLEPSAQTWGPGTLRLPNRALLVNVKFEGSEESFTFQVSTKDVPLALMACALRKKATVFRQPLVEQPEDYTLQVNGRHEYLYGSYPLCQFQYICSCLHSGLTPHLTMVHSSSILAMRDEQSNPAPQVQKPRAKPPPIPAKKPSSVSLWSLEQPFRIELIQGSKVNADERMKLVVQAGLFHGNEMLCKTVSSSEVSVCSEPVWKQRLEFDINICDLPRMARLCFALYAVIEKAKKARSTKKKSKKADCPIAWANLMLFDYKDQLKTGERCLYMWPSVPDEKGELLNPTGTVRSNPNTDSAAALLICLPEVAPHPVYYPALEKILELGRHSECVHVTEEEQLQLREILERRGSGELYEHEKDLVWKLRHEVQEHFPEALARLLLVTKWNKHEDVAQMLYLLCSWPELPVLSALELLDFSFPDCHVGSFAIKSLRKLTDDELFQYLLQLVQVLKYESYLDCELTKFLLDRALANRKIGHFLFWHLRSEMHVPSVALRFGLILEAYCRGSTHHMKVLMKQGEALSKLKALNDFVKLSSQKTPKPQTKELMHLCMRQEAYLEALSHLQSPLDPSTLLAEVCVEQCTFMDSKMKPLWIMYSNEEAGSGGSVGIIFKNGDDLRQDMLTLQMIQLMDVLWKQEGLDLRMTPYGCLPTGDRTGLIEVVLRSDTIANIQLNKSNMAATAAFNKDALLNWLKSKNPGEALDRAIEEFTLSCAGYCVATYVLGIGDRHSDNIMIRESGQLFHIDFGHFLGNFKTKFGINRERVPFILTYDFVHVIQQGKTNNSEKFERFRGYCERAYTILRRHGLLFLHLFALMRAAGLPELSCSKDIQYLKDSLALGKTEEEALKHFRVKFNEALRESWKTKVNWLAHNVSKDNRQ

[3] = AUC (0 to infinity) in ICR mouse at 3 mg/kg, iv measured upto 24 hrs by LC-MS/MS analysis; type: ADME, organism-based; parameters: time < 24 hrs, dose 3 mg/kg, route iv; conditions: in vivo
DOHH-2 = experiment: Antiproliferative activity against human DOHH-2 cells assessed as cell growth inhibition incubated for 96 hrs by cell titer glo assay; type: functional, cell-based; conditions: DOHH-2, 96 h
Pfeiffer [4] = experiment: Antitumor activity against human Pfeiffer cells xenografted in nude mouse assessed as tumor growth inhibition at 75 mg/kg, po BID for 21 days and measured twice weekly; type: functional; conditions: 504 h, time 21 day, read-out: TGI
[5] = Tmax in ICR mouse at 3 mg/kg, iv measured upto 24 hrs by LC-MS/MS analysis; type: ADME, organism-based; conditions: in vivo
Pfeiffer [6] = experiment: Induction of apoptosis in human Pfeiffer cells assessed as necrotic cells at 50 uM incubated for 48 hrs by annexin V-FITC staining based flow cytometry (reference value: 6.62 %); type: functional
Mus musculus [7] = experiment: In vivo inhibition of PI3K signalling in human Pfeiffer cells xenografted in nude mouse assessed as reduction in Akt phosphorylation at Ser473 at 75 mg/kg, po by Western blotting analysis; type: functional, organism-based
Pfeiffer [8] = experiment: Induction of apoptosis in human Pfeiffer cells assessed as late apoptotic cells at 2 uM incubated for 48 hrs by annexin V-FITC staining based flow cytometry (reference value: 7.87 %); type: functional
[9] = AUC (0 to t) in ICR mouse at 30 mg/kg, po measured upto 24 hrs by LC-MS/MS analysis; type: ADME, organism-based; parameters: time < 24 hrs, dose 30 mg/kg, route po; conditions: in vivo
SU-DHL-6 [10] = experiment: Induction of cell cycle arrest in human SU-DHL-6 cells assessed as accumulation at G0/G1 phase at 2 to 50 uM after 24 hrs by propidium iodide and RNAase staining based flow cytometric analysis; type: functional; conditions: dose 2-50 µM
[11] = Microsomal stability in mouse liver microsomes assessed as intrinsic clearance; type: ADME, Microsome; conditions: read-out: CLH
[12] = Oral bioavailability in ICR mouse at 30 mg/kg measured upto 24 hrs by LC-MS/MS analysis; type: ADME, organism-based; conditions: in vivo
[13] = target: T1, Phosphatidylinositol 4,5-bisphosphate 3-kinase catalytic subunit delta isoform; experiment: Inhibition of PI3Kdelta in IgM stimulated human Raji cells incubated for 10 mins by AlphaLISA assay; type: cell-based
[14] = target: Phosphatidylinositol 4,5-bisphosphate 3-kinase catalytic subunit beta isoform (Homo sapiens, UniProt P42338); experiment: Inhibition of PI3Kbeta (unknown origin) using PIP2 as substrate measured after 1 hr in presence of ATP by ADP-glo luminescence assay
SU-DHL-6 [15] = experiment: Induction of apoptosis in human SU-DHL-6 cells assessed as apoptotic rate at 50 uM incubated for 48 hrs by annexin V-FITC staining based flow cytometry; type: functional
[16] = target: T2, Phosphatidylinositol 4,5-bisphosphate 3-kinase catalytic subunit gamma isoform (Homo sapiens, UniProt P48736); experiment: Inhibition of PI3Kgamma (unknown origin) using PIP2 as substrate measured after 1 hr in presence of ATP by ADP-glo luminescence assay
Target sequence in this assay (P48736 whole entry, the tested form may be a part, canonical isoform): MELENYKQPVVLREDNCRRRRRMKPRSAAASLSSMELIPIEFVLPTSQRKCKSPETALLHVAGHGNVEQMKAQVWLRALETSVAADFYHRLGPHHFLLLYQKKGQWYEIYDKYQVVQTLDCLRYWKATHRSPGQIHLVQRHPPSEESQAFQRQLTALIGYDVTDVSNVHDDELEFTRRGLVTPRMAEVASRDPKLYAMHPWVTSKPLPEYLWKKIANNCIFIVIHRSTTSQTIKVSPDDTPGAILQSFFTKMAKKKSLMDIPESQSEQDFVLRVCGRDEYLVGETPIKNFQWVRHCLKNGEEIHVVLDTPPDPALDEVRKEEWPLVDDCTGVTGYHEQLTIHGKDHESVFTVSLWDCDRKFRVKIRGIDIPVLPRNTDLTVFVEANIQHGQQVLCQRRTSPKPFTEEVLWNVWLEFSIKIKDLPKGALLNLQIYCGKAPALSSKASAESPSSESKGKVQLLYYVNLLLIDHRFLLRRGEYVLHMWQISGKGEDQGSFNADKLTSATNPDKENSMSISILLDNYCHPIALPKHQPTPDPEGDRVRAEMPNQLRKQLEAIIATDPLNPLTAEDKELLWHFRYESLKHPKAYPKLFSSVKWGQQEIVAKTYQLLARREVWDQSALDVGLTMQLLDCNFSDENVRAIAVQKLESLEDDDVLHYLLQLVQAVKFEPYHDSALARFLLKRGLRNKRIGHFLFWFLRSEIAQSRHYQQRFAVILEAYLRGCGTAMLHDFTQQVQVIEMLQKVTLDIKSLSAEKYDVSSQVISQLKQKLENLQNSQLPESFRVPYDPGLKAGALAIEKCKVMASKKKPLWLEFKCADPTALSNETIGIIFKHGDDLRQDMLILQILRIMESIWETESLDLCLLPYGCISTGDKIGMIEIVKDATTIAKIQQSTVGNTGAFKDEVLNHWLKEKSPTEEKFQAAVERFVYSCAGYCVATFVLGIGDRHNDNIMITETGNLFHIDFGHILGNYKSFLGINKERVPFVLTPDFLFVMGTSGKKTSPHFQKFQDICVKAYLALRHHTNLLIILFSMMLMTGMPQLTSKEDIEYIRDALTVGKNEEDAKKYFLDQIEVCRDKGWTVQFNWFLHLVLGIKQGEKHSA

[17] = target: T2, Phosphatidylinositol 4,5-bisphosphate 3-kinase catalytic subunit gamma isoform; experiment: Inhibition of wild type partial length human PIK3CG (S144 to A1102 residues) expressed in mammalian cells assessed as residual activity at 10 uM relative to control; type: cell-based
Target sequence in this assay (P48736 whole entry, looked up, the tested form may be a part, canonical isoform): as the sequence (P48736 whole entry, the tested form may be a part, canonical isoform) above

[18] = Clearance in ICR mouse at 3 mg/kg, iv measured upto 24 hrs by LC-MS/MS analysis; type: ADME, organism-based; conditions: in vivo
Pfeiffer [19] = experiment: Induction of apoptosis in human Pfeiffer cells assessed as early apoptotic cells at 10 uM incubated for 48 hrs by annexin V-FITC staining based flow cytometry (reference value: 4.16 %); type: functional
Mus musculus [20] = experiment: In vivo inhibition of PI3K signalling in human Pfeiffer cells xenografted in nude mouse assessed as reduction in Akt phosphorylation at Ser473 at 5 mg/kg, ip by Western blotting analysis; type: functional, organism-based
[21] = Tmax in ICR mouse at 30 mg/kg, po measured upto 24 hrs by LC-MS/MS analysis; type: ADME, organism-based; conditions: in vivo
Pfeiffer [22] = experiment: Induction of apoptosis in human Pfeiffer cells assessed as early apoptotic cells at 50 uM incubated for 48 hrs by annexin V-FITC staining based flow cytometry (reference value: 4.16 %); type: functional
[23] = Microsomal stability in mouse liver microsomes assessed as half life; type: ADME, Microsome
[24] = Plasma protein binding in mouse; type: ADME, cell-free; conditions: read-out: PPB (converted)
[25] = Toxicity in nude mouse xenografted with human Pfeiffer cells assessed as effect on body weight at 75 mg/kg, po BID for 21 days and measured twice weekly; type: organism-based; conditions: in vivo, 504 h, time 21 day
Pfeiffer [26] = experiment: Antitumour activity against human Pfeiffer cells xenografted in nude mouse assessed as reduction in Ki67 expression in tumor at 75 mg/kg, po BID for 21 days by immunohistochemical analysis; type: functional, organism-based; conditions: time 21.0 day

Phosphatidylinositol 4,5-bisphosphate 3-kinase catalytic subunit beta isoform, sequence (P42338 whole entry, canonical isoform): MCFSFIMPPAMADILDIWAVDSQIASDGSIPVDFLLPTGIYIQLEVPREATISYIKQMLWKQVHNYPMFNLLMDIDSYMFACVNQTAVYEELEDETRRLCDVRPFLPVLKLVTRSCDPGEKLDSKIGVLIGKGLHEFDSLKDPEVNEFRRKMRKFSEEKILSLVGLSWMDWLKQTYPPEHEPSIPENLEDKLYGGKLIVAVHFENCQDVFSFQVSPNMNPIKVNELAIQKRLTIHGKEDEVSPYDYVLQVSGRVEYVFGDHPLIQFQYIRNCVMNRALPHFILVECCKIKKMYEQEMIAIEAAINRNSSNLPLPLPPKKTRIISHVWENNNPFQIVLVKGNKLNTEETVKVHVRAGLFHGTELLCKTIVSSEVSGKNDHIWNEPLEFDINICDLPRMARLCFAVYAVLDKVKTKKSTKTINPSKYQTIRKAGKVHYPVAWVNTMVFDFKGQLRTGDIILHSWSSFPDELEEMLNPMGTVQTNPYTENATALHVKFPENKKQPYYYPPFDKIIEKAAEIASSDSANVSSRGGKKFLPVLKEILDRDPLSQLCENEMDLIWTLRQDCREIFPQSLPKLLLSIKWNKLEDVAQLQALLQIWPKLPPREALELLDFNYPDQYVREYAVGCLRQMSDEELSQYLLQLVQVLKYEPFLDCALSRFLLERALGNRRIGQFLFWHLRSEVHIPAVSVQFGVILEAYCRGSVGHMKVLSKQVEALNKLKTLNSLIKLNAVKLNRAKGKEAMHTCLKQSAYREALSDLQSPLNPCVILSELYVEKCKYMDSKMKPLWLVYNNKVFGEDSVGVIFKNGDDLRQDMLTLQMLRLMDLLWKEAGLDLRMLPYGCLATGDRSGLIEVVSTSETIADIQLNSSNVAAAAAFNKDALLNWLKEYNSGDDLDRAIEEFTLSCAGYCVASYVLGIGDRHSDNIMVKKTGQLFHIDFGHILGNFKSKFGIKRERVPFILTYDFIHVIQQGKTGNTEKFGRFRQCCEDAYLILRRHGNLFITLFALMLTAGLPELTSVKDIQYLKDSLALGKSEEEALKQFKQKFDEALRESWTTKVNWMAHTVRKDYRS

## CCC(=O)N1CC[C@H](Nc2ncnc3sc(-c4cnc(OC)c(OC)c4)cc23)C1
SU-DHL-6 [1]
  IC50: 1.43 µM
[2]
  IC50: 0.0057 µM
[3]
  AUC(0-inf): 1370 ng·h/mL
DOHH-2
  IC50: 10.6 µM
Pfeiffer [4]
  inhibition in vivo at 75 mg/kg: 65.5%
[5]
  Tmax: 4.8 min
Pfeiffer [6]
  Activity: 7.18%
Mus musculus [7]
  inhibition: Active
Pfeiffer [8]
  Activity: 12.63%
[9]
  AUC(0-t) at 24 h: 1030 ng·h/mL
SU-DHL-6 [10]
  Activity: Active
[11]
  CLint scaled: 60.3 mL/min/kg
[12]
  bioavailability: 7.49%
[13]
  IC50: 0.137 µM
[14]
  IC50: 0.972 µM
SU-DHL-6 [15]
  Activity: >50%
[16]
  IC50: 2.68 µM
[17]
  Activity: 9.9%
[18]
  clearance: 36.5 mL/min/kg
Pfeiffer [19]
  Activity: 6.98%
Mus musculus [20]
  inhibition: Active
[21]
  Tmax: 1.5 h
Pfeiffer [22]
  Activity: 15.74%
[23]
  half-life: 1.51 h
[24]
  fraction unbound: 0.029
[25]
  Activity: 10%
Pfeiffer [26]
  Activity: Active
